According to paper PMC6838683, “Discovery of Human Signaling Systems: Pairing Peptides to G Protein-Coupled Receptors” (Cell, 2019):
Like-named read-outs stand apart in the source and are kept apart here. Positions of bridges follow the written chain, without caps; N, C: chain ends. No end group written: not given here.

Key:
GPR139 = target: T1, GPR139 (Homo sapiens, UniProt Q6DWJ6); test: Repeat of proposed literature pairing (mass redistribution and/or internalization); assay type: cell-based
T1 construct: hIL-2Ra signal peptide (N); expressed in transfected cells
T1 sequence (Q6DWJ6 2-353 limits assumed): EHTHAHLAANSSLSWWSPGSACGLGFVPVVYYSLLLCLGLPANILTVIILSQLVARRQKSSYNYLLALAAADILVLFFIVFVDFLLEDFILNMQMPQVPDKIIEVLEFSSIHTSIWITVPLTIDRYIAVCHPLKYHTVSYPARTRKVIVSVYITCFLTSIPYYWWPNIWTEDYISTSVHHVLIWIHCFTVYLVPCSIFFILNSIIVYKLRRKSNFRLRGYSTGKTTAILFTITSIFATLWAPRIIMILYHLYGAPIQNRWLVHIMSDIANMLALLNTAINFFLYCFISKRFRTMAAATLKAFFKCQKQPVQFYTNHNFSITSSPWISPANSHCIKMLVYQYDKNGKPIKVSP
Source text: (§1) DMR assays provide a single integrated readout of ligand-dependent cellular response, utilizing an optical biosensor in specialized microplates to detect wavelength shifts of reflected light as it passes through the biosensor and the lower portion of the cell (∼150-200 nm). As a signal pathway agnostic approach, DMR assays are well-suited to the study of GPCRs ([Fang et al., 2008], [Schröder et al., 2011]). The mass redistribution response (Δ picometer (pm)) likely reflects a number of intracellular events, including cytoskeletal rearrangement, protein trafficking and receptor internalization. Orphan receptor-expressing cells were gently washed twice with assay buffer (HBSS with 1 mM CaCl2, 1 mM MgCl2, 20 mM HEPES, 0.01% pluronic F-68, pH 7.4) containing 0.1% DMSO and cells were equilibrated for 90 min at 22°C in the EPIC Benchtop (BT) System (Corning) to establish a stable DMR signal. After 3-5 min baseline recordings, peptides (10 μM) were added in duplicate wells using an electronic 384-channel Viaflo pipette (Integra Biosciences, Switzerland) and DMR responses were measured for 60 min at 22°C. 100 nM norepinephrine was included as an internal assay control to assess the cellular DMR response via endogenously-expressed adrenoceptors in the TREx 293 cells. Real-time data were processed using the BT to column converter MS-Excel macro (Corning) and analyzed in GraphPad Prism 7.0. DMR recordings in peptide screening experiments were buffer and solvent corrected and the area under the curve (AUC) was quantified. For subsequent validation experiments, peptides were diluted in assay buffer containing 0.1% DMSO and DMR assays were performed as above. […] Data represent mean ± standard error of the mean (SEM) from at least 3 biologically independent experiments.
A TR-FRET real-time internalization assay was used to examine peptide-dependent changes in orphan receptor localization as described previously ([Foster and Bräuner-Osborne, 2018]). Surface-expressed SNAP-tagged receptors were labeled with a cell-impermeable luminescent terbium cryptate (100 nM SNAP Lumi4-Tb; Cisbio, France) for 1 hr at 37°C. Cells were washed to remove excess terbium and incubated with fluorescein-O-acetic acid (100 μM; Sigma Aldrich) for 5 min at 37°C. Peptides were added as for DMR assays, and internalization responses were recorded for 60 min at 37°C using an EnVision 2104 Multimode plate reader (PerkinElmer). 100 nM GLP-1 was used as a positive control for SNAP-GLP1R internalization. Real-time internalization responses were calculated based on TR-FRET (excitation 340 nm; emission 520 nm and 615 nm), and were expressed as the ratio between donor (terbium) and acceptor (fluorescein) emission. For peptide screening analysis (both DMR and internalization assays), we calculated the area under the curve from the real-time traces. […] Validation experiments for receptor internalization were performed as above. Internalization data was processed in MS-Excel and area under the curve was used to generate concentration-response curves using GraphPad Prism 7.0. Data represent mean ± standard error of the mean (SEM) from at least 3 biologically independent experiments.

human GPCRs = target: human GPCRs; set-up: method as in Guide to Pharmacology database; conditions: max reported value, ref Guide to Pharmacology database, cited from earlier work
Source text: Supplement mmc1.xlsx, sheet "HumanGPCRLigands" | column: pKi_value; pKd_value; pEC50_value; pIC50_value

NPFF1 = target: T2, NPFF1 (Homo sapiens, UniProt Q9GZQ6); test: β-arrestin recruitment (Tango), known peptide receptors; assay type: cell-based; conditions: mean, n = 3
T2 construct: host or cells: HTLA cells (HEK293-derived)
Source text: Supplement mmc7.xlsx, sheet "Peptide validation data" | column: Emax; pEC50

GPR15 [1] = target: T3, GPR15 (Homo sapiens, UniProt P49685); test: Real-time receptor internalization (TR-FRET), concentration-response; assay type: cell-based; conditions: mean, SEM and n (3); for EC50: read-out: Internalization assays pEC50 (converted)
T3 construct: hIL-2Ra signal peptide (N); expressed in transfected cells
T3 sequence (P49685 2-360 limits assumed): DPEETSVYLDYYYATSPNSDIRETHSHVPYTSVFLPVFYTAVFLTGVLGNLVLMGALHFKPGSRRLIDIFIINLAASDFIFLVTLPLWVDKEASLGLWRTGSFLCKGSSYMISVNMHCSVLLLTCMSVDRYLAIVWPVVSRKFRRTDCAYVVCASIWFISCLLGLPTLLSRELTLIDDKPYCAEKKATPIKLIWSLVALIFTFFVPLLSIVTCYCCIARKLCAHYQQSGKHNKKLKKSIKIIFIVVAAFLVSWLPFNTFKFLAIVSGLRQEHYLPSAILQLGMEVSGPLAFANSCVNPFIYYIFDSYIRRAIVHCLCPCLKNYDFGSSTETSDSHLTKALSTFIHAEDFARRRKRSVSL
Experimental: (§2) 48 hr prior to parallel assaying, SNAP-tagged oGPCR cells were plated (10,000 cells/well) in fibronectin-coated 384-well Epic biosensor microplates (Corning) and poly-D-lysine coated white 384-well plates (for internalization assays). SNAP- GLP-1 receptor was plated alongside orphan receptor cells as an internal assay control for internalization assays. Receptor-expression was induced with 0.1 μg/ml doxycycline.
(§3) A TR-FRET real-time internalization assay was used to examine peptide-dependent changes in orphan receptor localization as described previously ([Foster and Bräuner-Osborne, 2018]). Surface-expressed SNAP-tagged receptors were labeled with a cell-impermeable luminescent terbium cryptate (100 nM SNAP Lumi4-Tb; Cisbio, France) for 1 hr at 37°C. Cells were washed to remove excess terbium and incubated with fluorescein-O-acetic acid (100 μM; Sigma Aldrich) for 5 min at 37°C. Peptides were added as for DMR assays, and internalization responses were recorded for 60 min at 37°C using an EnVision 2104 Multimode plate reader (PerkinElmer). 100 nM GLP-1 was used as a positive control for SNAP-GLP1R internalization. Real-time internalization responses were calculated based on TR-FRET (excitation 340 nm; emission 520 nm and 615 nm), and were expressed as the ratio between donor (terbium) and acceptor (fluorescein) emission. For peptide screening analysis (both DMR and internalization assays), we calculated the area under the curve from the real-time traces. As the magnitude of the responses was variable between orphan receptor targets, particularly for the SNAP-tag based internalization assay where the signal is dependent on receptor surface expression, the AUC values were normalized to their respective plate averages and expressed as fold change. Validation experiments for receptor internalization were performed as above. Internalization data was processed in MS-Excel and area under the curve was used to generate concentration-response curves using GraphPad Prism 7.0. Data represent mean ± standard error of the mean (SEM) from at least 3 biologically independent experiments.

GPR15 [2] = target: T3, GPR15; test: cAMP inhibition (Gi/o), HTRF with forskolin; assay type: cell-based; conditions: receptor GPR15, mean, SEM and n (4); for Emax: read-out: cAMP accumulation assays Emax (% FSK); for EC50: read-out: cAMP accumulation assays pEC50 (converted)
Experimental: Peptide-dependent second messenger responses were measured using commercially available HTRF-based IP1 and cAMP kits (Cisbio) as described previously ([Nørskov-Lauritsen et al., 2014]). Receptor expression was induced for 48 hr with 0.1 μg/ml doxycycline in 10 cm dishes. For IP1 measurements (to measure Gq/11), 2,500 cells/well were mixed with ligands in triplicate wells in low volume white 384-well plates at 37°C for 30 min. For cAMP assays, 2,500 cells/well were added in triplicate wells in white 384-well plates in the absence or presence of 3 μM forskolin (to measure Gs and Gi/o activation respectively). 100 μM IBMX was included to prevent cAMP degradation during 30 min stimulation on a plate shaker at room temperature. For both assays, HTRF was measured using an EnVision 2104 Multimode plate reader (PerkinElmer).

GPR15 [3] = target: T3, GPR15; test: Dynamic mass redistribution (DMR), concentration-response; assay type: cell-based; conditions: receptor GPR15, mean; for DMR assays Emax (peak or AUC): SEM and n (2-3); for EC50: SEM and n (3), read-out: DMR assays pEC50 (converted)
Experimental: as §2, §1

MAS1 = target: T4, MAS1 (Homo sapiens, UniProt P04201); test: β-arrestin recruitment (Tango), indicative pairing; assay type: cell-based; conditions: mean, n = 3
T4 construct: host or cells: HTLA cells (HEK293-derived)
T4 sequence (P04201 1-325): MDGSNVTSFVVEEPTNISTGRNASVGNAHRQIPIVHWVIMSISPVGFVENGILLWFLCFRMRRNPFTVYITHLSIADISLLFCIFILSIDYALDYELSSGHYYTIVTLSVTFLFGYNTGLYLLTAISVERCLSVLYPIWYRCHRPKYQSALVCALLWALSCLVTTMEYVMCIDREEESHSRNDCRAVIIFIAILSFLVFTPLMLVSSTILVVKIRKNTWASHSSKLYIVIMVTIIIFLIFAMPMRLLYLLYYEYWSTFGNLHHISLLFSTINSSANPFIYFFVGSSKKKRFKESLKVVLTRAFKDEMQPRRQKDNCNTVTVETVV
Experimental: The peptide library was additionally screened against 120 GPCR targets in parallel, including all available orphan receptors and 27 known class A peptide receptors using the Tango assay platform ([Kroeze et al., 2015]). Briefly, HTLA cells (a HEK293 cell line stably expressing a tTA-dependent luciferase reporter and a β-arrestin2-TEV fusion gene) were plated 10,000 cells/well in poly-L-lysine–coated clear-bottom white 384-well plates in DMEM supplemented with 10% FBS, 100 U/ml penicillin and 100 μg/ml streptomycin, 2 μg/ml puromycin and 100 μg/ml hygromycin B. 24 hr later, cells were transfected with Tango GPCR constructs using the calcium phosphate method ([Jordan et al., 1996]). The next day, culture medium was changed to DMEM + 1% dFBS and 10 μM peptides were added for overnight stimulation. Bright-Glo solution (Promega) was incubated for 15–20 min at room temperature, and luminescence was counted using a Trilux luminescence counter (Wallac).
For subsequent peptide validation experiments using Tango assays, HTLA cells were transiently transfected in 10 cm dishes with the receptor of interest using polyethylenimine (PEI) ([Longo et al., 2013]). After 24 hr, 25,000 cells/well were plated in clear bottom, white-walled 384-well plates. Assays were performed as described above, with luminescence measured using an EnSpire 2300 Multimode plate reader (PerkinElmer). Luminescence counts were exported into Excel and were analyzed using GraphPad Prism 7.

GPR37 = test: Repeat of proposed literature pairing (mass redistribution and/or internalization); assay type: cell-based, human; conditions: repeat of literature pairing; Figure S7A, Tables S5 and S7
Source text: as §1, §3

T2 sequence (Q9GZQ6 whole entry): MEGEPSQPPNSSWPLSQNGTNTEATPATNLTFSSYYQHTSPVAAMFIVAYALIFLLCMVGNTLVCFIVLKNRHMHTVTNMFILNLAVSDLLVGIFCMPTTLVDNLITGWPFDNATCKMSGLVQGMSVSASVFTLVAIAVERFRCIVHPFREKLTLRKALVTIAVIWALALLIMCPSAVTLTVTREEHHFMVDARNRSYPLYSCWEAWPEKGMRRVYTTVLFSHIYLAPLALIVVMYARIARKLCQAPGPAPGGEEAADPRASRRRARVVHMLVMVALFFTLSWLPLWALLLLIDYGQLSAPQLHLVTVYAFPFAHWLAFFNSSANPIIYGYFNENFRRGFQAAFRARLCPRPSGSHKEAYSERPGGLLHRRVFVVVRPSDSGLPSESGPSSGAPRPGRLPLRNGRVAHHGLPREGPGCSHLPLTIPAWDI

ACTH (SYSMEHFRWGKPVGKKRRPVKVYPNGAEDESAEAFPLEF; Corticotropin; UniProt P01189 138-176, looked up) [melanocortin receptor ligand, reference compound]
Peptide pairing for orphan receptor GPR139 (confirmed/unconfirmed) (GPR139; repeat of literature pairing): Confirmed peptide pairings for orphans | receptor-dependent activation by proposed ligand, GPR139 (GPR139; repeat of literature pairing across multiple assays, Figure S7A, Tables S5 and S7): selective receptor-dependent activation | pKi_value (human GPCRs; receptor mc3r_human (MC3R, P41968)): 7.1 | pKi_value (human GPCRs; receptor mc4r_human (MC4R, P32245)): 6.2 | pKi_value (human GPCRs; receptor mc5r_human (MC5R, P33032)): 5 | pKi_value (human GPCRs; receptor mshr_human (MC1R, Q01726)): 8.6

ARANMEAGTMSHFPSLPQRF [Peptide 135]
Emax, Tango (fold over basal) (NPFF1): 22.0 fold over basal | pEC50, Tango (fold over basal) (NPFF1): 6.22

KRRPAKAWS [Peptide 64.1]
Internalization assays Emax (AUC) (GPR15 [1]): 3.1 | cAMP accumulation assays Emax (% FSK) (GPR15 [2]): 98.3 % FSK | DMR assays Emax (peak or AUC) (GPR15 [3]): 107

KRRPAKAWSGRRTRLCCHRVPSPNSTNLKGHHVRLCKPCKLEPEPRLWVVPGALPQV (disulfide 16-39, 17-36) [64.4 (Phoenix)]
EC50 (GPR15 [1]): 89.1 nM | Emax (GPR15 [2]): 41% | EC50 (GPR15 [2]): 1.26 nM | EC50 (GPR15 [3]): 324 nM

LWVVPGALPQV [64 original]
Internalization assays Emax (AUC) (GPR15 [1]): 45.8 | cAMP accumulation assays Emax (% FSK) (GPR15 [2]): 29.2 % FSK | DMR assays Emax (peak or AUC) (GPR15 [3]): 197

NAWGPWSKEQLSPQAREFWSLAAPQRF [Peptide 166]
Emax, Tango (fold over basal) (NPFF1): 26.7 fold over basal | pEC50, Tango (fold over basal) (NPFF1): 4.75 | Emax, Tango (fold over basal) (MAS1): 1.2 fold over basal | pEC50, Tango (fold over basal) (MAS1): 7.14

RPYLTQGNEIFPD [Peptide 90]
Emax, Tango (fold over basal) (NPFF1): 9.6 fold over basal | pEC50, Tango (fold over basal) (NPFF1): 4.27

TRLCCHRVPSPNSTNLKGHHVRLCKPCKLEPE (also: bicyclic or more (positions not given here)) [Peptide 64.2]
Internalization assays Emax (AUC) (GPR15 [1]): 4.3 | cAMP accumulation assays Emax (% FSK) (GPR15 [2]): 92.5 % FSK | DMR assays Emax (peak or AUC) (GPR15 [3]): 81

TRLCCHRVPSPNSTNLKGHHVRLCKPCKLEPEPRLWVVPGALPQV (disulfide 4-27, 5-24) [64.3 (Phoenix)]
EC50 (GPR15 [1]): 447 nM | Emax (GPR15 [2]): 40.8% | EC50 (GPR15 [2]): 25.7 nM | EC50 (GPR15 [3]): 13.2 nM

head activator
receptor-dependent activation by proposed ligand, GPR37 (GPR37): no activity
